The assay deals with T1, Axl (Homo sapiens, UniProt P30530).
T1 construct: endogenous in cells; host or cells: HeLa cells
T1 sequence (P30530 26-894): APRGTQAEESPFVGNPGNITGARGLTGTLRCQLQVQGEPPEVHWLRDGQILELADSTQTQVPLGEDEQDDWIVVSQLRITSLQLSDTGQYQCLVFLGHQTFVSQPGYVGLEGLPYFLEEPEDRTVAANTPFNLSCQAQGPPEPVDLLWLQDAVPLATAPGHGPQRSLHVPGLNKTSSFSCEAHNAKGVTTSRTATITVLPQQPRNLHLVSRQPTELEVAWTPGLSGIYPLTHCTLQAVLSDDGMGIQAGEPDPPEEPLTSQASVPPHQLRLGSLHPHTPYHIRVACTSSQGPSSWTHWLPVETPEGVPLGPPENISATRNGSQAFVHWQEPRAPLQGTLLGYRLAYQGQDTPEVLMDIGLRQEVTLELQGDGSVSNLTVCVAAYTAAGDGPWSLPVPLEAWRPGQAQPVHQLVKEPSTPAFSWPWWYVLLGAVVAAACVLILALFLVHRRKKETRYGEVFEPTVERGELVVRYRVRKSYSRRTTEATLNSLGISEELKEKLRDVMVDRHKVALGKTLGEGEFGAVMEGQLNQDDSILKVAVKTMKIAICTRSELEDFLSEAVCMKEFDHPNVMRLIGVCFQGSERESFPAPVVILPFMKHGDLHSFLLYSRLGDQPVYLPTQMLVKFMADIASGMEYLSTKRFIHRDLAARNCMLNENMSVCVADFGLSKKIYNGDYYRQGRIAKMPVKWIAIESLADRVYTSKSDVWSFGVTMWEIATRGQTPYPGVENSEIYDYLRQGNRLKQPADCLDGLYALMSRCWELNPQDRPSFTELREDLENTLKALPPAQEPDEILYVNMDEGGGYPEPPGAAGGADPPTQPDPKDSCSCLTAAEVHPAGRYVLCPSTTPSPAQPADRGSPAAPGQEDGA
Kind of assay: Phospho-Akt in-cell Western assay. Type of assay: cell-based. Conditions: Hela cells, stimulated by Axl-antibody cross-linking, phospho-Akt chemiluminescence; Table 1, formula (Ia). On the procedure: Phospho-Akt in-Cell Western Assay
The compounds of the invention were tested in the following assay for their ability to inhibit Axl activity.
• Cell culture plate: 96 well assay plate (Corning 3610), white, clear bottom, tissue-culture treated. • Cells: Hela cells. • Starvation medium: For Axl stimulation: 0.5% FCS (fetal calf serum) in DMEM, plus Axl/Fc (extracellular domain of AXL fused to imunoglobulin Fc region) (R&D, 154-AL) 500 ng/mL. • For EGF (epidermal growth factor) stimulation: 0.5% FCS in DMEM (Dulbecco's modified Eagles medium). • Poly-L-Lysine 0.01% solution (the working solution): 10 μg/ml, dilute In PBS (phosphate buffered saline). • Axl antibody cross-linking: • 1st: Mouse anti-Axl (R&D, MAB154). • 2nd: Biotin-SP-conjugated AffiniPure goat anti-mouse IgG (H+L) (Jackson ImmunoResearch #115-065-003). • Fixing buffer: 4% formaldehyde in PBS. • Wash buffer: 0.1% TritonX-100 in PBS. • Quenching buffer: 3% H2O2, 0.1% Azide in wash buffer, Azide and hydrogen peroxide (H2O2) are added fresh. • Blocking buffer: 5% BSA in TBST (tris buffered saline plus 0.1% Tween 20). • Primary antibody: Rabbit anti-human Phospho-Akt antibody (Cell Signaling 9271): 1×250 diluted in blocking buffer. • Secondary antibody: HRP (horse radish peroxidase)-conjugated Goat anti-Rabbit secondary, stock solution: Jackson ImmunoResearch (Goat anti-Rabbit HRP, #111-035-144) 1:1 diluted in glycerol, store at −20° C. The working solution: 1×2000 dilution of stock in blocking buffer. • Chemiluminescent working solution (Pierce, 37030): SuperSignal ELISA (enzyme linked immunosorbant assay) Pico Chemiluminescent substrate. • Crystal Violet solution: Stock: 2.5% Crystal violet in methanol, filtered and kept at ambient temperature. The working solution: dilute the stock 1:20 with PBS immediately before use. • 10% SDS: working solution: 5% SDS (sodium dodecylsulfate), diluted in PBS Methods: Day 1:
A 96 well TC (tissue culture treated) plate was coated with 10 μg/mL poly-L-Lysine at 37° C. for 30 min, washed twice with PBS, and air-dried for 5 minutes before cells were added. Hela cells were seeded at 10,000 cells/well and the cells were starved in 100 μL starvation medium containing Axl/Fc for 24 hrs.
The cells were pre-treated with test compounds by adding 100 μL of 2× test compound to the starvation medium on the cells. The cells were incubated at 37° C. for 1 hr before stimulation.
The cells were stimulated by Axl-antibody cross-linking as follows: A 5× 1st/2nd Axl antibody mixture was made (37.5 μg/mL 1st/100 μg/mL 2nd) in starvation medium and nutated at 4° C. with thorough mixing for 1-2 hours for clustering. The resulting mix was warmed to 37° C. 50 μL of 5× Axl 1st/2nd of antibody cluster was added to the cells and the cells were incubated at 37° C. for 5 min.
After 5 minutes stimulation, the plate was flicked to remove medium and the plate was tapped onto paper towels. Formaldehyde (4.0% in PBS, 100 μL) was added to fix the cells and the cells were incubated at ambient temperature for 20 min without shaking.
The cells were washed with a plate washer buffer to remove the formaldehyde solution. The plate was flicked to removed excess wash buffer and tapped onto paper towels. Quenching buffer (100 μL) was added to each well and the cells were incubated at ambient temperature for 20 minutes without shaking.
The cells were washed with a plate washer buffer to remove the quenching buffer. Blocking buffer (100 μL) was added and the cells were incubated at ambient temperature for at least an hour with gentle shaking.
The cells were washed with a plate washer buffer and diluted primary antibody (50 μL) was added to each well (blocking buffer was added to the negative control wells instead). The plates were incubated overnight at 4° C. with gentle shaking.
The wash buffer was removed, diluted secondary antibody (100 μL) was added, and the cells were incubated at ambient temperature for 1 hour with gentle shaking. […]

Each structure is given as a SMILES string. pIC50: −log10 of the molar value.

For the molecule `CC=CCN[C@H]1CCc2ccc(Nc3nc(N)n(-c4cc5c(nn4)-c4ccccc4CCC5)n3)cc2CC1` [Compound 42, 1-(6,7-dihydro-5H-benzo[6,7]cyclohepta[1,2-c]pyridazin-3-yl)-N^3-((7S)-7-(but-2-enylamino)-6,7,8,9-tetrahydro-5H-benzo[7]annulene-2-yl)-1H-1,2,4-triazole-3,5-diamine], the negative-log IC50 (pIC50) (usually the IC50 on a negative log10 scale, so that one unit is a factor of ten) was more than 6.00.

As to `Nc1nc(Nc2ccc3c(c2)CC[C@@H](NCC2CC4C=CC2C4)CC3)nn1-c1cc2c(nn1)-c1ccccc1CCC2` (stereo partly drawn) [Compound 38, 1-(6,7-dihydro-5H-benzo[6,7]cyclohepta[1,2-c]pyridazin-3-yl)-N^3-((7S)-7-((bicyclo[2.2.1]hept-2-en-5-ylmethyl)amino)-6,7,8,9-tetrahydro-5H-benzo[7]annulene-2-yl)-1H-1,2,4-triazole-3,5-diamine], the pIC50 is more than 6.00.

As for `Nc1nc(Nc2ccc3c(c2)CCC(N2CCC(F)(F)CC2)CC3)nn1-c1cc2c(nn1)-c1ccccc1CCC2` (stereo not drawn) [Compound 3, 1-(6,7-dihydro-5H-benzo[6,7]cyclohepta[1,2-c]pyridazin-3-yl)-N^3-(7-(4,4-difluoropiperidin-1-yl)-6,7,8,9-tetrahydro-5H-benzo[7]annulene-2-yl)-1H-1,2,4-triazole-3,5-diamine], the negative-log IC50 (pIC50) was 5.00 to 6.00.

As for `CC(C)(C)OC(=O)N[C@H]1CCc2ccc(Nc3nc(N)n(-c4cc5c(nn4)-c4ccccc4CCC5)n3)cc2CC1` [Compound 13, 1-(6,7-dihydro-5H-benzo[6,7]cyclohepta[1,2-c]pyridazin-3-yl)-N^3-((7S)-7-(t-butoxycarbonylamino)-6,7,8,9-tetrahydro-5H-benzo[7]annulene-2-yl)-1H-1,2,4-triazole-3,5-diamine], the negative logarithm of the IC50 (pIC50) is less than 4.70.

`Nc1nc(Nc2ccc3c(c2)CC[C@@H](N(CC2CC2)CC2CC2)CC3)nn1-c1cc2c(nn1)-c1ccccc1CCC2` [Compound 16, 1-(6,7-dihydro-5H-benzo[6,7]cyclohepta[1,2-c]pyridazin-3-yl)-N^3-((7s)-7-(di(cyclopropylmethyl)amino)-6,7,8,9-tetrahydro-5H-benzo[7]annulene-2-yl)-1H-1,2,4-triazole-3,5-diamine] showed a negative logarithm of the IC50 (pIC50) of more than 6.00.

`Nc1nc(Nc2ccc3c(c2)CC[C@@H](NC2CCCC2)CC3)nn1-c1cc2c(nn1)-c1ccccc1CCC2` [Compound 22, 1-(6,7-dihydro-5H-benzo[6,7]cyclohepta[1,2-c]pyridazin-3-yl)-N^3-((7S)-7-(cyclopentylamino)-6,7,8,9-tetrahydro-5H-benzo[7]annulene-2-yl)-1H-1,2,4-triazole-3,5-diamine] had a pIC50 of more than 6.00.

For the molecule `Nc1nc(Nc2ccc3c(c2)CCC(N2CCN(CC(=O)O)CC2)CC3)nn1-c1cc2c(nn1)-c1ccccc1CCC2` (stereo not drawn) [Compound 10, 1-(6,7-dihydro-5H-benzo[6,7]cyclohepta[1,2-c]pyridazin-3-yl)-N^3-(7-(4-(carboxymethyl)piperazin-1-yl)-6,7,8,9-tetrahydro-5H-benzo[7]annulene-2-yl)-1H-1,2,4-triazole-3,5-diamine], the negative-log IC50 (pIC50) was 5.00 to 6.00.

Molecule `CCCN[C@H]1CCc2ccc(Nc3nc(N)n(-c4cc5c(nn4)-c4ccccc4CCC5)n3)cc2CC1` [Compound 18, 1-(6,7-dihydro-5H-benzo[6,7]cyclohepta[1,2-c]pyridazin-3-yl)-N^3-((7S)-7-((propyl)amino)-6,7,8,9-tetrahydro-5H-benzo[7]annulene-2-yl)-1H-1,2,4-triazole-3,5-diamine] showed a pIC50 of more than 6.00.

Consider `CCN(CC)[C@H]1CCc2ccc(Nc3nc(N)n(-c4cc5c(nn4)-c4ccccc4CCC5)n3)cc2CC1` [Compound 20, 1-(6,7-dihydro-5H-benzo[6,7]cyclohepta[1,2-c]pyridazin-3-yl)-N^3-((7S)-7-(diethylamino)-6,7,8,9-tetrahydro-5H-benzo[7]annulene-2-yl)-1H-1,2,4-triazole-3,5-diamine], for which the pIC50 is more than 6.00.

The values above are taken from patent US9173882B2, “Polycyclic heteroaryl substituted triazoles useful as Axl inhibitors” (Rigel Pharmaceuticals, Inc., priority 2008, dated 2015).
